Target: T1, mAChR M1 (UniProt P11229)
T1 sequence (P11229 1-460): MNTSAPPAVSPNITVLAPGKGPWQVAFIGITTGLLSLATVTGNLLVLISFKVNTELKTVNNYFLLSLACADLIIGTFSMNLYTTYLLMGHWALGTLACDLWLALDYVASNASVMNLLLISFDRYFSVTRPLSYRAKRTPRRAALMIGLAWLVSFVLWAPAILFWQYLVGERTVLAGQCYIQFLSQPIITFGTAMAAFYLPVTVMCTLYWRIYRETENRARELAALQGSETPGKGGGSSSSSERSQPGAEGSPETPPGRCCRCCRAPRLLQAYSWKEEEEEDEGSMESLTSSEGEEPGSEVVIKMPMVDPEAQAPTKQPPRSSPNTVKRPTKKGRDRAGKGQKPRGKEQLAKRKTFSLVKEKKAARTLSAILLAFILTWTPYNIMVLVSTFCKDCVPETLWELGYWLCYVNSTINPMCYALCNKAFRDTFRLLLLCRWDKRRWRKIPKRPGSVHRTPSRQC
Assay: mAChR M1 cell-based functional assay (calcium mobilization, potentiation of EC20 acetylcholine response)
Settings: for Emax (%): % ACh maximum at 30 μM, mAChR M1-expressing CHO-K1 cells, calcium flux; for pEC50 / EC50: positive allosteric modulation of EC20 ACh response, mAChR M1 CHO-K1 cells; for pEC50: <5 estimated where no plateau; for EC50: >10 μM estimated where no plateau, read-out: EC50

| Emax (%) | pEC50 | EC50 [µM] | Structure (SMILES) |
| --- | --- | --- | --- |
| <30 | <5.00 | > 10 | O=C1c2ccccc2CN1Cc1ccc(-n2cncn2)cc1F [Example B126] |
| <30 | <5.00 | > 10 | Cn1ccc2cc(-c3ccc(CN4Cc5ncccc5C4=O)c(F)c3)ccc21 [Example B127] |

Source: patent US10654847B2, “Substituted 2-(4-heterocyclylbenzyl)isoindolin-1-one analogs as positive allosteric modulators of the muscarinic acetylcholine receptor M1” (Vanderbilt University, priority 2011, dated 2020)
